Earlier results as cited in US11517536B2, “Pharmaceutical composition comprising pomalidomide” (SYNTHON B.V., priority 2016, dated 2022).

solubility: low
solubility in water (drug substance, in water): practically insoluble
Structure (SMILES): Nc1cccc2c1C(=O)N(C1CCC(=O)NC1=O)C2=O (centres unmarked) [Pomalidomide, 4-amino-2-(2,6-dioxopiperidin-3-yl)isoindole-1,3-dione]
